Consider one compound from patent US20190038597A1, “PREVENTION OF VASCULAR AND CARDIAC FIBROSIS VIA IRE1ALPHA INHIBITION” (McMaster University, priority 2017, published 2019).

Test [1] has as its system VSMCs. Kind of test: Picro-Sirius Red assay of collagen synthesis in VSMCs. The test is classed as cell-based, rat. Here is the method:
(§1) VSMCs were cultured in DMEM/F12 containing 1% FBS. Confluent cells were treated with L-ascorbic acid-2-phosphate (100 μg/ml) and either TGF-β1 (5 ng/ml) or Ang II (1 μM). (A) Agarose gel for assessment of TGF-β1-induced XBP1 splicing in VSMCs after 24 h. (B) Picro-Sirius Red assay for measurement of collagen deposition induced by combined TGF-β1 and AA2P treatment after 72 h, and inhibition by 4μ8c and STF-083010. (C) Western blot for assessment of collagen chaperone expression after treatment of TGF-β1 and 4μ8c for 48 h. *, p<0.05. (D) Measurement of Ang II-induced collagen production and inhibition by 4μ8c and STF-083010 after 72 h.
VSMCs were isolated from the aortas of 5-week old WKY rats using the explant method^29. The thoracic aorta was removed from the animal and placed in ice-cold 5× Antibiotics-Antimycotics solution (ThermoFisher). The adventitia was gently removed and the aorta was cut longitudinally. The endothelial layer was removed by gentle scraping with forceps. The aorta was cut into 3 mm^2 squares and placed on a 6 well plate in DMEM/F12 medium containing 10% fetal bovine serum (FBS). Explants were incubated undisturbed in a 5% CO2 incubator at 37° C. for 1 week and then passaged. Sprague-Dawley renal fibroblasts were purchased (Cell Biologics) and cultured in low glucose DMEM/F12 medium containing 10% FBS, streptomycin (100 μgimp, and penicillin (100 U/ml, Invitrogen, Burlington, ON). Cells between passages 5 and 10 were used for experiments. Cells were cultured in medium containing 1% FBS overnight before treatment.
Collagen synthesis was measured using a Picro-Sirius Red-based assay as previously described^30. Briefly, cells cultured on a 96 well plate were fixed in methanol for 10 minutes at −20° C. Cells were washed once with PBS and incubated with Picrosirius Red stain (0.1% Direct Red 80 in saturated picric acid) for 1 h at room temperature. After the staining solution was removed, the cells were washed three times with 0.1% acetic acid and then imaged. The dye was then eluted with 0.1 N NaOH for 10 minutes on a rocking platform. Absorbance at 540 nm was measured using a Spectramax Plus Microplate Reader (Molecular Devices).
Cells were co-treated with either 4μ8c or S′TF-083010 to inhibit IRE1α endonuclease activity. TGF-β1 induced XBP1 splicing after 24 h, which was blocked by co-treatment with 4μ8c (FIG. 2A). Collagen production was measured using a Picro-Sirius Red-based colorimetric assay. TGF-β1 combined with AA2P induced collagen synthesis in the VSMCs, which was inhibited by co-treatment with 4μ8c or STF-083010 (FIG. 2B).

In test [2] the target is T1, IRE1α endonuclease (Rattus norvegicus, UniProt A0A4Y1YQ52).
T1 construct: endogenous in cells; host or cells: primary aortic vascular smooth muscle cells from 5-week old WKY rats
T1 sequence (A0A4Y1YQ52 21-977): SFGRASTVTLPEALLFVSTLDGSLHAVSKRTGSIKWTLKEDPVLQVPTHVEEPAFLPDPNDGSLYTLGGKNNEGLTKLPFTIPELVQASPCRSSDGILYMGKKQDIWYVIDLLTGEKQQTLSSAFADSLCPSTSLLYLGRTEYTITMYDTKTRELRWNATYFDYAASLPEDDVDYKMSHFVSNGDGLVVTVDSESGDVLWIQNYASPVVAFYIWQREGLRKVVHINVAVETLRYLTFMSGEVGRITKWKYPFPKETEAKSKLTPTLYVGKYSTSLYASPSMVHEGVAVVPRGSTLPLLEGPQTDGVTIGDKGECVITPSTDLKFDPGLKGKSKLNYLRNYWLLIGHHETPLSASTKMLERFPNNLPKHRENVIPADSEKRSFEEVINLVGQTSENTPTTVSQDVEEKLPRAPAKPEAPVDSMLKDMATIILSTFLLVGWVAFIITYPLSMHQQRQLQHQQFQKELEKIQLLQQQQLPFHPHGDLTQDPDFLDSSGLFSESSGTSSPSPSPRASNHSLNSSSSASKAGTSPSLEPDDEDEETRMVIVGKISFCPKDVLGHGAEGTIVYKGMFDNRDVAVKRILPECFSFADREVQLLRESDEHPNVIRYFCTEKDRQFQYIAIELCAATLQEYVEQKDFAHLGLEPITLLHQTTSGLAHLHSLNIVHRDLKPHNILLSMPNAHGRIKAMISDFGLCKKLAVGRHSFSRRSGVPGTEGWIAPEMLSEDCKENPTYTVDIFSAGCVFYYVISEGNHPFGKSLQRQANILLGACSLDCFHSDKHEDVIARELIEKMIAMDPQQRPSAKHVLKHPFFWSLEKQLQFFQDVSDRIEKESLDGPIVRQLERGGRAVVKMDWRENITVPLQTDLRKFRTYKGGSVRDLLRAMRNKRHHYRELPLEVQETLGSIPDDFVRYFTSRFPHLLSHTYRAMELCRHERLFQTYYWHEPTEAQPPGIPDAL
Briefly: XBP1 splicing assay in VSMCs. To be noted: tunicamycin (1 μg/ml) 6 h, 4μ8c 30 μM or STF-083010 60 μM, FIG. 1A. In kind it is cell-based. As for the experimental part: (§2) VSMCs were treated with tunicamycin (1 μg/ml) and either 4μ8c (30 μM) or STF-083010 (60 μM) for 6 h or 24 h. (A) Agarose gel for assessment of XBP1 splicing after 6 h of treatment with tunicamycin and densitometric quantification. (B) Western blot for assessment of ER chaperone expression after 24 h tunicamycin treatment with or without inhibition of IRE1α by 4μ8c. Data is presented as mean±SEM. *, p<0.05 vs. Vehicle; #, p<0.05 vs. Tm.
as §1
VSMCs were isolated from the aortas of 5-week old WKY rats using the explant method^29. The thoracic aorta was removed from the animal and placed in ice-cold 5× Antibiotics-Antimycotics solution (ThermoFisher). The adventitia was gently removed and the aorta was cut longitudinally. The endothelial layer was removed by gentle scraping with forceps. […]
Total RNA was extracted from cultured cells and rat tissues using the TRIzol reagent (ThermoFisher) according to manufacturer's instructions. RNA concentration and purity were measured using a Nanodrop ND-1000 spectrophotometer (NanoDrop Technologies, Inc.). […]
Aortic VSMCs were isolated from normotensive WKY rats and used for in vitro experiments. […] To test the ability of these compounds to block the IRE1α endonuclease, XBP1 splicing was measured in VSMCs treated with the ER stress inducer tunicamycin for 6 h with or without pre-treatment by 4μ8c or STF-083010. […]

For test [3], the system named is GRP78, GRP94 and PDI. Kind of test: Western blot of ER chaperone / ER stress marker expression in VSMCs. The test is classed as cell-based, rat. Particulars: 24 h tunicamycin treatment, FIG. 1B. Here is the method:
as §2, §1
VSMCs were isolated from the aortas of 5-week old WKY rats using the explant method^29. The thoracic aorta was removed from the animal and placed in ice-cold 5× Antibiotics-Antimycotics solution (ThermoFisher). The adventitia was gently removed and the aorta was cut longitudinally. The endothelial layer was removed by gentle scraping with forceps. The aorta was cut into 3 mm^2 squares and placed on a 6 well plate in DMEM/F12 medium containing 10% fetal bovine serum (FBS). Explants were incubated undisturbed in a 5% CO2 incubator at 37° C. for 1 week and then passaged. […]
Cells were lysed in 1× Laemmli buffer and protein content was quantified using the BioRad DC Protein Assay (BioRad, Mississauga, Canada). […]

Consider `O=S(=O)(/N=C/c1c(O)ccc2ccccc12)c1cccs1` [STF-083010, N-[(2-Hydroxy-1-naphthyl)methylene]-2-thiophenesulfonamide], for which the “collagen synthesis induced by TGF-β1 combined with AA2P” value in test [1] (72 h, co-treatment, FIG. 2B) is recorded as “inhibited”. Further, in test [1] (Ang II (1 μM) 72 h, FIG. 2D), the “collagen synthesis induced by Ang II” value is on record as “inhibition”. In addition, the “spliced-to-unspliced XBP1 ratio” value in test [2] is recorded as “reduced”. The “elevated expression levels of ER stress markers GRP78, GRP94 and PDI” value in test [3] is “reduced”.
